Measured values as given in ChEMBL document CHEMBL1129240, “Synthesis of acyclo-C-nucleosides in the imidazo[1,2-a]pyridine and pyrimidine series as antiviral agents” (J Med Chem, 1996).
Values after ≈ are worked out from the molar mass of the structure shown.

How the values were obtained:
[1] = Cytotoxic concentration required to reduce CEM cell viability by 50%; format: cell-based; conditions: human, CCRF-CEM (CEM) cells
Cytomegalovirus [2] = assay: Minimum Inhibitory Concentration (MIC) tested for activity against Cytomegalovirus (CMV) using AD169 strain; format: functional; conditions: Human betaherpesvirus 5
Cytomegalovirus [3] = assay: Minimum Inhibitory Concentration (MIC) tested for activity against Cytomegalovirus (CMV) using Davis strain; format: functional; conditions: Human betaherpesvirus 5
[4] = Cytotoxic concentration required to cause microscopically detectable alteration of normal cell morphology of E6SM cells; format: cell-based; conditions: human, read-out: CC50
[5] = Minimum cytotoxic concentration to reduce the HEL cell proliferation by 50%; format: cell-based; conditions: human, HEL cells; read-out: MCC
Human alphaherpesvirus 3 [6] = assay: Minimum Inhibitory Concentration (MIC) tested for activity against Varicella-Zoster Virus(VZV) using YS(TK+) strain.; format: functional
Human alphaherpesvirus 3 [7] = assay: Minimum Inhibitory Concentration (MIC) tested for activity against Varicella-Zoster Virus(VZV) using YS/R (TK-) strain.; format: functional
Human alphaherpesvirus 3 [8] = assay: Minimum Inhibitory Concentration (MIC) for activity against Varicella-Zoster Virus(VZV) using OKA (TK+) strain; format: functional
[9] = Cytotoxic concentration required to cause microscopically detectable alteration of normal cell morphology of Vero cells; format: cell-based; conditions: chlorocebus sabaeus, read-out: CC50
[10] = Cytotoxic concentration required to cause microscopically detectable alteration of normal cell morphology of HeLa cells; format: cell-based; conditions: human, read-out: CC50
Human alphaherpesvirus 3 [11] = assay: Minimum Inhibition Concentration( MIC) for activity against Varicella-Zoster Virus(VZV) using YS(TK+) strain.; format: functional
Human alphaherpesvirus 3 [12] = assay: Minimum Inhibition Concentration (MIC) for activity against Varicella-Zoster Virus(VZV) using OKA (TK+) strain; format: functional
Human alphaherpesvirus 3 [13] = assay: Minimum Inhibition Concentration (MIC) for activity against Varicella-Zoster Virus(VZV) using YS/R (TK-) strain.; format: functional
Human alphaherpesvirus 3 [14] = assay: Minimum Inhibition Concentration (MIC) for activity against Varicella-Zoster Virus(VZV) using 07/1 (TK-) strain.; format: functional
Cytomegalovirus [15] = assay: Minimum Inhibition Concentration( MIC) for activity against Cytomegalovirus (CMV) using AD169 strain; format: functional; conditions: Human betaherpesvirus 5
Cytomegalovirus [16] = assay: Minimum Inhibition Concentration (MIC) for activity against Cytomegalovirus (CMV) using Davis strain; format: functional; conditions: Human betaherpesvirus 5
Human alphaherpesvirus 3 [17] = assay: Minimum Inhibitory Concentration (MIC) tested for activity against Varicella-Zoster Virus(VZV) using 07/1 (TK-) strain.; format: functional
Human alphaherpesvirus 3 [18] = assay: Minimum Inhibition Concentration (MIC) for activity against Varicella-Zoster Virus(VZV) using YS(TK+) strain.; format: functional
Cytomegalovirus [19] = assay: Minimum Inhibition Concentration (MIC) for activity against Cytomegalovirus (CMV) using AD169 strain; format: functional; conditions: Human betaherpesvirus 5
Human alphaherpesvirus 3 [20] = assay: Minimum Inhibition Concentration (MIC) for activity against Varicella-Zoster Virus (VZV) using YS (TK+) strain.; format: functional
Human alphaherpesvirus 3 [21] = assay: Minimum Inhibition Concentration (MIC) for activity against Varicella-Zoster Virus (VZV) using YS/R (TK-) strain.; format: functional

| SMILES | CC50 [1] [µg/mL] | MIC (Cytomegalovirus [2]) [µg/mL] | MIC (Cytomegalovirus [3]) [µg/mL] | MCC [4] [µg/mL] | CC50 [5] [µg/mL] | MIC (Human alphaherpesvirus 3 [6]) [µg/mL] | MIC (Human alphaherpesvirus 3 [7]) [µg/mL] | MIC (Human alphaherpesvirus 3 [8]) [µg/mL] | MCC [9] [µg/mL] | MCC [10] [µg/mL] | MIC (Human alphaherpesvirus 3 [13]) [µg/mL] | MIC (Human alphaherpesvirus 3 [17]) [µg/mL] | further results |
| --- | --- | --- | --- | --- | --- | --- | --- | --- | --- | --- | --- | --- | --- |
| Cc1ccn2c(CSCC(O)CO)cnc2c1 (stereo not given) | > 100 | > 50 | > 50 | > 400 | > 100 | > 100 | 50 (≈ 198 µM) | 100 (≈ 396 µM) | > 400 | 400 |  |  |  |
| Cc1cccn2c(CSCc3ccccc3)cnc12 | 0.5 (≈ 1.86 µM) |  |  | 40 | 8 (≈ 29.8 µM) |  |  |  | 100 | 4 | > 1 |  | MIC (Human alphaherpesvirus 3 [11]): 0.3 µg/mL (≈ 1.12 µM); MIC (Human alphaherpesvirus 3 [12]): 0.9 µg/mL (≈ 3.35 µM); MIC (Human alphaherpesvirus 3 [14]): 0.4 µg/mL (≈ 1.49 µM); MIC (Cytomegalovirus [15]): 0.2 µg/mL (≈ 0.745 µM); MIC (Cytomegalovirus [16]): 0.2 µg/mL (≈ 0.745 µM) |
| Nc1nc2c(ncn2COCCO)c(=O)[nH]1 [ACYCLOVIR] |  |  |  | > 400 | > 100 |  |  |  |  |  |  |  |  |
| Cc1cccc2ncc(CSCC(C)O)n12 (stereo not given) | 27 (≈ 114 µM) | > 10 | > 10 | 400 | 90 (≈ 381 µM) | 20 (≈ 84.6 µM) | 24 (≈ 102 µM) |  | > 400 | 100 |  | 24 (≈ 102 µM) | MIC (Human alphaherpesvirus 3 [12]): 30 µg/mL (≈ 127 µM) |
| NC(=O)c1ncn([C@@H]2O[C@H](CO)[C@@H](O)[C@H]2O)n1 [RIBAVIRIN] |  |  |  | > 400 |  |  |  |  | > 400 | > 200 |  |  |  |
| OCCCSCc1cnc2c(Cl)cc(C(F)(F)F)cn12 | 27 (≈ 83.1 µM) | > 40 | > 40 | 100 | > 100 |  | > 40 | > 40 | > 100 | 100 |  | > 40 | MIC (Human alphaherpesvirus 3 [18]): > 40 µg/mL |
| Cc1cn([C@H]2C[C@H](N=[N+]=[N-])[C@@H](CO)O2)c(=O)[nH]c1=O [ZIDOVUDINE] | > 125 |  |  |  |  |  |  |  |  |  |  |  |  |
| Cc1ccn2c(CSCc3ccccc3)cnc2c1 | 3.1 (≈ 11.6 µM) |  |  | 100 | 45 (≈ 168 µM) |  |  |  | 40 | 40 |  |  | MIC (Cytomegalovirus [19]): 3.5 µg/mL (≈ 13 µM); MIC (Human alphaherpesvirus 3 [12]): 15 µg/mL (≈ 55.9 µM); MIC (Human alphaherpesvirus 3 [20]): 17 µg/mL (≈ 63.3 µM); MIC (Human alphaherpesvirus 3 [21]): 10 µg/mL (≈ 37.3 µM); MIC (Cytomegalovirus [16]): 3.5 µg/mL (≈ 13 µM) |
| Cc1c(Br)c(C)n2c(CSCCO)cnc2c1Br | 17 (≈ 43.1 µM) | > 10 | > 10 | 100 | 70 (≈ 178 µM) |  | > 10 | > 40 | > 200 | > 200 |  | > 40 | MIC (Human alphaherpesvirus 3 [18]): > 40 µg/mL |
| Nc1nc2c(ncn2COC(CO)CO)c(=O)[nH]1 [GANCICLOVIR] |  | 0.5 (≈ 1.96 µM) | 0.5 (≈ 1.96 µM) | > 100 |  |  |  |  |  |  |  |  |  |
| CCSCc1cnc2c(C)cccn12 | 4.1 (≈ 19.9 µM) | 2 (≈ 9.69 µM) | 2 (≈ 9.69 µM) | 200 | 35 (≈ 170 µM) | 5 (≈ 24.2 µM) |  | 10 (≈ 48.5 µM) | 400 | 10 | > 10 | 6.8 (≈ 33 µM) |  |
| CC(O)CSCc1cnc2ncccn12 (stereo not given) | > 100 | > 40 | > 40 | > 400 | > 100 | > 40 |  | > 40 | > 400 | 400 | > 40 | > 40 |  |
| Cc1cccn2c(CSCCO)cnc12 | 9.5 (≈ 42.7 µM) | 7 (≈ 31.5 µM) | 6 (≈ 27 µM) | 400 | 85 (≈ 382 µM) | 10 (≈ 45 µM) |  | 25 (≈ 112 µM) | 400 | 40 | > 10 | 15 (≈ 67.5 µM) |  |
| Cc1cccc2ncc(CSCC(O)CO)n12 (stereo not given) | 45 (≈ 178 µM) | > 10 | 25 (≈ 99.1 µM) | 400 | 75 (≈ 297 µM) | > 40 | > 40 | > 40 | 400 | > 100 |  | > 40 |  |
| O=c1[nH]c(=O)n([C@H]2C[C@H](O)[C@@H](CO)O2)cc1/C=C/Br [BRIVUDINE] |  |  |  | > 400 | > 50 |  |  |  | > 400 | > 400 | > 20 |  | MIC (Human alphaherpesvirus 3 [12]): 0.0009 µg/mL (≈ 0.0027 µM); MIC (Human alphaherpesvirus 3 [18]): 0.002 µg/mL (≈ 0.006 µM); MIC (Human alphaherpesvirus 3 [14]): > 50 µg/mL |
